Patent publication EP1743642A1 (priority 2005, dated 2007)

Columns and labels:
[1] = tested on: cannabinoid receptors; test: Mouse tetrad model, antagonistic effect against Win 55212-2; format: in vivo, Male NMRI mice; details: 5 mg/kg i.v. prior to Win 55212-2 in a dose of 1,25mg/kg i.v.
Text: (§1) Substances with affinity for cannabinoid receptors are known to produce a wide range of pharmacological effects. It is also known that intravenous administration of a substance with affinity for cannabinoid receptors in mice produces analgesia , hypothermia, sedation and catalepsy. Individually, none of these effects can be considered as proof that a tested substance has affinity for cannabinoid-receptors, since all of these effects are common for various classes of centrally active agents. However, substances, which show all of these effects, i.e. substances that are active in this so-called tetrad model are considered to have affinity for the cannabinoid receptors. It has further been shown that cannabinoid receptor antagonists are higly effective in blocking the effects of a cannabinoid agonist in the mouse tetrad model.
(§2) The tetrad model is described, for example, in the publication of A. C. Howlett et al, International Union of Pharmacology XXVII. Classification of Cannabinoid Receptors, Pharmacol Rev 54, 161-202 , 2002 and David R. Compton et al., "In-vivo Characterization of a Specific Cannabinoid Receptor Antagonist (SR141716A) :Inhibition of Tetrahydrocannbinol- induced Responses and Apparent Agonist Activity", J. Pharmacol. Exp. Ther. 277 , 2, 586-594, 1996. The corresponding parts of the description are hereby incorporated by reference.
(§3) Male NMRI mice with a weight of 20-30 g (Harlan, Barcelona, Spain) are used in all of the following experiments.
(§4) Before testing in the behavioral procedures given below, mice are acclimatized to the experimental setting. Pre-Treatment control values are determined for analgesia hot plate latency (in seconds), rectal temperature, sedation and catalepsy.
(§5) In order to determine the agonistic activty of the substance to be tested, the mice are injected intravenously with the substance to be tested or the vehicle alone. 15 minutes after injection, latency in hot plate analgesia is measured.
(§6) Rectal temperature, sedation and catalepsy are measured 20 minutes after injection.
In order to determine the antagonistic activity the identical procedure is used as for the determination of the agonistic effects, but with the difference that the substance to be evaluated for its antagonistic activity is injectected 5 minutes before the intravenous injection of 1.25 mg/kg Win-55,212 a known cannabinoid-receptor agonist.
(§7) The hot plate analgesia is determined according to the method described in Woolfe D. et al. "The evaluation of analgesic action of pethidine hydrochloride (Demerol)", J. Pharmacol. Exp. Ther. 80, 300-307,1944. The respective description is hereby incorporated by reference and forms part of the present disclosure.
(§8) The mice are placed on a hot plate (Harvard Analgesimeter) at 55 ± 0.5 °C until they show a painful sensation by licking their paws or jumping and the time for these sensations to occur is recorded. This reading is considered the basal value (B). The maximum time limit the mice are allowed to remain on the hot plate in absence of any painful response is 40 seconds in order to prevent skin damage. This period is called the cut-off time (PC).
(§9) Fifteen minuts after the administration of the substance to be tested, the mice are again placed on the hot plate and the afore described procedure is repeated. This period is called the post-treatment reading (PT).
(§10) The degree of analgesia is calculated from the formula : %MPEof Analgesia = (PT−B)/(PC−B) × 100 [formula] MPE = Maximum possible effect.
(§11) Sedation and ataxia is determined according to the method described in Desmet L. K. C. et al. "Anticonvulsive properties of Cinarizine and Flunarizine in Rats and Mice", Arzneim. -Forsch. (Frug Res) 25, 9, 1975. The respective description is hereby incorporated by reference and forms part of the present disclosure.
The chosen scoring system is • 0: no ataxia; • 1: doubful; • 2: obvious calmness and quiet; • 3 pronounced ataxia; • prior to as well as after treatment. […]

[2] = tested on: cannabinoid receptors; test: Mouse tetrad model, agonistic effect; format: in vivo, Male NMRI mice; set-up: key to Agonistic effect D: Sedation: % of sedation = mean score (0–3 scale)/3 × 100; details: 5 mg/kg i.v.
Text: as §1, §2, §3, §4, §5, §6, §7, §8, §9, §10, §11
The chosen scoring system is • 0: no ataxia; • 1: doubful; • 2: obvious calmness and quiet; • 3 pronounced ataxia; • prior to as well as after treatment.
The percentage of sedation is determined according to the formula: %of sedation = arithmetic mean/3 × 100 [formula] […]

[3] = target: T1, transfected human CB2 receptors (Homo sapiens, UniProt P34972); test: In-vitro determination of affinity to CB2 receptor (radioligand [3H]-CP55940); format: binding
T1 construct: purchased Receptor Biology, Inc
T1 sequence (P34972 whole entry): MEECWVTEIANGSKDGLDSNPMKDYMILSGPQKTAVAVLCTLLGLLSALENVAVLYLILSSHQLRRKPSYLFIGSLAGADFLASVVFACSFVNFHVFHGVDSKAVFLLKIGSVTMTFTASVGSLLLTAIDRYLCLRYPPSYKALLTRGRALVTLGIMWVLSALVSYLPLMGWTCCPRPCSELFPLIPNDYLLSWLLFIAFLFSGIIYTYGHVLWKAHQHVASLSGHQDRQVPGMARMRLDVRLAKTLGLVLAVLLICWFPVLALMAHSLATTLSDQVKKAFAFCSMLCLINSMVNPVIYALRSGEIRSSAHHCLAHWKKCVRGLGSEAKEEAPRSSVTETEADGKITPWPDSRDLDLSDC
Procedure: (§12) I. In-vitro determination of affinity to CB1/CB2-Receptors
(§13) The in-vitro determination of the affinity of the inventive substituted pyrazoline compounds to CB1/CB2-Rezeptors is carried out as described in the publication of Ruth A. Ross, Heather C. Brockie et al., "Agonist-inverse agonist characterization at CB1 and CB2 cannabinoid receptors of L-759633, L759656 and AM630", British Journal of Pharmacology, 126, 665-672, (1999), whereby the transfected human CB1 and CB2 receptors of Receptor Biology, Inc. are used. The radioligand used for both receptors is [^3H]-CP55940. The respective parts of the description is hereby incorporated by reference and forms part of the present disclosure.

[4] = In-vivo testing for regulation of triglycerides in blood, diet-induced obese mice (study VI); details: high fat diet, 30 mg/kg/day p.o., day 28 after beginning of the treatment; p<0.005 vs. vehicle
Procedure: In a second set of experiments carried out similar to the tests shown above the TG (triglyceride) levels of diet-induced obese mice in blood were determined. Mice receiving a high fat diet were - after a feeding period of […] - either treated p.o. with vehicle (0,5 % HPMC) or with the compound according to example 0 (30 mg/kg/day p.o.). TG levels in blood were determined on day 28 after beginning of the treatment.

[5] = In-vivo testing for regulation of triglycerides in blood, obese mice on high fat diet (study V); set-up: species or system male mice B6 Lep ob/ob; details: 30 mg/kg/day po, 14 days
Text: The study was done using six weeks old male mice B6 Lep ob/ob, obtained from Charles River (France). Mice were divided in 3 groups : I (control), II (vehicle), III (example 0).
The animals of the group I received the standard diet (D-12450B, Research Diets, NJ, USA).
The animals of the groups II and III were fed with a High Fat Diet (D-12492, Research Diets, NJ, USA), in both cases for 7 weeks (References 1 and 2).
The animals of the groups III were fed with a High Fat Diet (D-12492, Research Diets, NJ, USA), in both cases for 7 weeks (References 1 and 2).
At the end of the feeding period of 7 weeks, it was started the treatment period (14 days): Group II mice received the vehicle (10 ml/kg/day, po, of the aqueous solution of acacia gum, 5% W/V). Group III was administered with 30 mg/kg/day, po, of the inventive compound 5-(4-chlorophenyl)-1-(2,4-dichlorophenyl)-4,5-dihydro-pyrazole-3-carboxylic acid according to Example 0. Group I didn't received any treatment. The three groups of mice had the same diet than in the previous period.
At the end of the 14 days period of treatment, the blood levels of triglicerides of the animals were determined. […]

[6] = target: T2, transfected human CB1 receptors (Homo sapiens, UniProt P21554); test: In-vitro determination of affinity to CB1 receptor (radioligand [3H]-CP55940); format: binding
T2 construct: purchased Receptor Biology, Inc
T2 sequence (P21554 whole entry): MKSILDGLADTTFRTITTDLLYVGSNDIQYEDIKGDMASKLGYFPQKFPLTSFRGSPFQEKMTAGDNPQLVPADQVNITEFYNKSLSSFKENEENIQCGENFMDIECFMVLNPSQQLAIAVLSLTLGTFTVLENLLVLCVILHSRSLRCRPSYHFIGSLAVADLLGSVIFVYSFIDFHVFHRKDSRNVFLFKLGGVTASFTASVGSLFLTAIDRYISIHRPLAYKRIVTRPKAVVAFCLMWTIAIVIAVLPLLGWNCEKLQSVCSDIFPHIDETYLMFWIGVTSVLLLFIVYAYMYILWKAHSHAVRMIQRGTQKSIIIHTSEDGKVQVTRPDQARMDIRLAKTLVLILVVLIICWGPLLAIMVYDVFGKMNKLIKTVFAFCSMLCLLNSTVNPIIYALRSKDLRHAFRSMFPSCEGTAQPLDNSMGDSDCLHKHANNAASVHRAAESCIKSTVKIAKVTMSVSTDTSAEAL
Procedure: as §12, §13

SMILES | Antagonistic Effect A: Hot-Plate test [1] | Antagonistic Effect B: Hypothermia [1] | Antagonistic Effect C: Catalepsy [1] | Antagonistic Effect D: Sedation [1] | Agonistic effect A: Hot-Plate test [2] | Agonistic effect B: Hypothermia [2] | Agonistic effect C: Catalepsy [2] | Agonistic effect D: Sedation [2] | Ki [3] | TG (triglyceride) levels [4] | Triglicerides, whole blood levels (mg/dl) ([5]; N.S. compared with Group I) | Relative levels ([5]; triglicerides relative to Group I (standard diet = 100%)) | Ki [6]
O=C(C1=NN(c2ccc(Cl)cc2Cl)C(c2ccc(Cl)cc2)C1)N1CCCCC1 (stereo not shown) [Example 5, [5-(4-Chloro-phenyl)-1-(2,4-dichloro-phenyl)-4,5-dihydro-1H-pyrazol-3-yl]-piperidin-1-yl-methanone] | 50 | 40 | 20 | 20 | 0 | 50 | 0 | 0 | ~1000 nM | – | – | – | –
O=C(O)C1=NN(c2ccc(Cl)cc2Cl)C(c2ccc(Cl)cc2)C1 (stereo not shown) [Example 0, 5-(4-chlorophenyl)-1-(2,4-dichlorophenyl)-4,5-dihydro-pyrazole-3-carboxylic acid] | – | – | – | – | – | – | – | – | – | 0.80 ± 0.07 mmol/L | 67.5 (N.S.) mg/dl | 110.6% | –
O=C(NN1CCCCC1)C1=NN(c2ccc(Cl)cc2Cl)C(c2ccc(Cl)cc2)C1 (stereo not shown) [Example 1, N-piperidinyl-5-(4-chlorophenyl)-1-(2,4-dichlorophenyl)-4,5-dihydro-1H-pyrazole-3-carboxamide] | 74 | 100 | 100 | 100 | 0 | 0 | 0 | 0 | > 1000 nM | – | – | – | < 25 nM
